This passage reports Ki, IC50 and inhibition results from patent US20050101595A1, “N-containing cycloalkyl-substituted amino-thiazole derivatives and pharmaceutical compositions for inhibiting cell proliferation and methods for their use” (PFIZER INC., priority 2003, published 2005).

Each structure is given as a SMILES string. Structures can show the parent of a compound that is named as a salt.

Test [1] addresses CDK2/Cyclin A (Homo sapiens, UniProt P24941). In words: Inhibition of CDK2/Cyclin A Retinoblastoma Kinase Activity. It counts as biochemical. The conditions noted are these: for Ki: apparent Ki, CDK2/proteolyzed cyclin A, Rb fragment substrate, 25 μM ATP; for inhibition at 0.05 µM: read-out: % inhibition of CDK2 (@ 0.05 μM), compound at 0.05 μM. The gist of the method: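 Human CDK2, baculovirus/insect-cell expressed, complexed with proteolyzed cyclin A (10 nM or 19 nM CDK2) phosphorylates an Rb fragment with 25 μM [32P/33P]ATP at pH 7.4, 30° C, for 60 or 75 minutes under initial-rate conditions. Filter-captured radioactivity is read by phosphorimager; apparent Ki from competitive-inhibition fits.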

The test system of test [2] is HCT-116 cell line. In words: Inhibition of cell growth, tetrazolium salt (MTT) assay. The conditions noted are these: Homo sapiens, MTT; for IC50: HCT-116, 120 h, first HCT-116 column (c4), three to five days, read-out: HCT-116 IC50; for inhibition at 0.175 µM: HCT-116, HCT-116 cells, compound at 0.175 uM. It counts as cell-based. The gist of the method:
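HCT-116 cells in McCoy's 5A medium received compound 4 h after plating (0.5% v/v DMSO) and were incubated three to five days at 37° C, 5% CO2. MTT (0.2 mg/mL final) then added for 4 h; DMSO-solubilized formazan read at 540 nm against 0.5% DMSO-treated controls.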

As for `CC1CCN(CCCS(=O)(=O)N2CCC(Nc3nc(N)c(C(=O)c4c(F)cccc4F)s3)CC2)CC1` [Example K58, {4-Amino-2-[(1-{[3-(4-methylpiperidin-1-yl)propyl]sulfonyl}piperidin-4-yl)amino]-1,3-thiazol-5-yl}(2,6-difluorophenyl)methanone], in test [1], the Ki stood at 11 nM. In addition, the IC50 in test [2] was determined as 150 nM.

As to `C[C@@H](NCCC(=O)N1CCC(Nc2nc(N)c(C(=O)c3c(F)cccc3F)s2)CC1)c1ccccc1` [Example U1, Trifluoroacetic Acid Salt], the Ki in test [1] amounted to 20.7 nM. In addition, in test [2], the IC50 is 910 nM.

On to `CCOCCNCCCS(=O)(=O)N1CCC(Nc2nc(N)c(C(=O)c3c(F)cccc3F)s2)CC1` [Example V98], for which the inhibition at 0.05 µM in test [1] worked out at 81%. Besides, the inhibition at 0.175 µM in test [2] stood at 21%.

Take `NC(=O)C1CCCN(CCCS(=O)(=O)N2CCC(Nc3nc(N)c(C(=O)c4c(F)cccc4F)s3)CC2)C1` (stereo not shown) [Example V16]: in test [1], the inhibition at 0.05 µM amounted to 80%. In addition, in test [2], the inhibition at 0.175 µM came to 5%.

On to `Nc1nc(NC2CCN(S(=O)(=O)CCCNCc3ccco3)CC2)sc1C(=O)c1c(F)cccc1F` [Example V24], for which the inhibition at 0.05 µM in test [1] stood at 89%. Further, the inhibition at 0.175 µM in test [2] amounted to 48%.

Consider `COCCCNCCCS(=O)(=O)N1CCC(Nc2nc(N)c(C(=O)c3c(F)cccc3F)s2)CC1` [Example V40], for which the inhibition at 0.05 µM in test [1] was 80%. Moreover, the inhibition at 0.175 µM in test [2] was 0%.

Turning to `CCN(CCCCO)CCCS(=O)(=O)N1CCC(Nc2nc(N)c(C(=O)c3c(F)cccc3F)s2)CC1` [Example V108], the inhibition at 0.05 µM in test [1] is 79%. Besides, in test [2], the inhibition at 0.175 µM came to 2%.

Consider `Nc1nc(NC2CCN(S(=O)(=O)CCCNCCCCO)CC2)sc1C(=O)c1c(F)cccc1F` [Example V90], for which the inhibition at 0.05 µM in test [1] is 79%. For the same molecule, the inhibition at 0.175 µM in test [2] worked out at 21%.

Take `Nc1nc(NC2CCN(S(=O)(=O)CCCN3C[C@@H]4C[C@H]3CO4)CC2)sc1C(=O)c1c(F)cccc1F` [Example V143]: the inhibition at 0.05 µM in test [1] came to 90%. Also, the inhibition at 0.175 µM in test [2] was 34%.

Take `Nc1nc(NC2CCN(S(=O)(=O)CCCNCc3ccc(F)cc3)CC2)sc1C(=O)c1c(F)cccc1F` [Example V182, (4-Amino-2-{[1-({3-[(4-fluorobenzyl)amino]propyl}sulfonyl)-4-piperidinyl]amino}-1,3-thiazol-5-yl)(2,6-difluorophenyl)methanone.]: the Ki in test [1] was determined as 4.7 nM. Moreover, in test [2], the IC50 was determined as 70 nM.

With `CN1CCN(CCCS(=O)(=O)N2CCC(Nc3nc(N)c(C(=O)c4c(F)cccc4F)s3)CC2)CC1` [Example V35], the inhibition at 0.05 µM in test [1] was determined as 72%. Moreover, in test [2], the inhibition at 0.175 µM came to 17%.

`C=CCNCCCS(=O)(=O)N1CCC(Nc2nc(N)c(C(=O)c3c(F)cccc3F)s2)CC1` [Example V103]: the inhibition at 0.05 µM in test [1] was found to be 84%. The inhibition at 0.175 µM in test [2] was determined as 37%.

With `CCN1CCN(CCCS(=O)(=O)N2CCC(Nc3nc(N)c(C(=O)c4c(F)cccc4F)s3)CC2)CC1` [Example V59], the inhibition at 0.05 µM in test [1] was found to be 72%. The inhibition at 0.175 µM in test [2] came out at 7%.

As to `CCCCC(CO)NCCCS(=O)(=O)N1CCC(Nc2nc(N)c(C(=O)c3c(F)cccc3F)s2)CC1` (stereo not shown) [Example V120], in test [1], the inhibition at 0.05 µM stood at 89%. Also, the inhibition at 0.175 µM in test [2] stood at 6%.

Consider `C=C(C)CN(C)CCCS(=O)(=O)N1CCC(Nc2nc(N)c(C(=O)c3c(F)cccc3F)s2)CC1` [Example V177, (4-Amino-2-{[1-({3-[methyl(2-methyl-2-propen-1-yl)amino]propyl}sulfonyl)-4-piperidinyl]amino}-1,3-thiazol-5-yl)(2,6-difluorophenyl)methanone.], for which the Ki in test [1] was 17 nM. Besides, the 50% inhibitory concentration (IC50) in test [2] turned out to be 90 nM.

On to `Nc1nc(NC2CCN(S(=O)(=O)CCCN3CCC(CCO)CC3)CC2)sc1C(=O)c1c(F)cccc1F` [Example V134], for which the inhibition at 0.05 µM in test [1] was 80%. In addition, in test [2], the inhibition at 0.175 µM came to 8%.

For `Nc1nc(NC2CCN(S(=O)(=O)CCCNCCCc3c[nH]cn3)CC2)sc1C(=O)c1c(F)cccc1F` [Example V146], the inhibition at 0.05 µM in test [1] was 82%. Further, the inhibition at 0.175 µM in test [2] is 13%.

For the molecule `Nc1nc(NC2CCN(S(=O)(=O)CCCNCCc3cccnc3)CC2)sc1C(=O)c1c(F)cccc1F` [Example V114], in test [1], the inhibition at 0.05 µM was determined as 86%. In addition, the inhibition at 0.175 µM in test [2] amounted to 17%.

With `C=C(C)CN(C)CCCS(=O)(=O)N1CCC(Nc2nc(N)c(C(=O)c3c(F)cccc3F)s2)CC1` [Example V137], the inhibition at 0.05 µM in test [1] was found to be 76%. Besides, the inhibition at 0.175 µM in test [2] stood at 78%.

Turning to `Cc1cccc(CNCCCS(=O)(=O)N2CCC(Nc3nc(N)c(C(=O)c4c(F)cccc4F)s3)CC2)c1` [Example V180, (4-Amino-2-{[1-({3-[(3-methylbenzyl)amino]propyl}sulfonyl)-4-piperidinyl]amino}-1,3-thiazol-5-yl)(2,6-difluorophenyl)methanone.], the Ki in test [1] is 4 nM. Besides, the half-inhibitory concentration (IC50) in test [2] was determined as 90 nM.

Regarding `CCN(CC)CCCS(=O)(=O)N1CCC(Nc2nc(N)c(C(=O)c3c(F)cccc3F)s2)CC1` [Example V57], in test [1], the inhibition at 0.05 µM is 77%. Moreover, the inhibition at 0.175 µM in test [2] is 33%.

For `Nc1nc(NC2CCN(S(=O)(=O)CCCNCCN3CCCC3)CC2)sc1C(=O)c1c(F)cccc1F` [Example V9], in test [1], the inhibition at 0.05 µM came out at 78%. Besides, in test [2], the inhibition at 0.175 µM is 13%.

On to `CCN(CCO)CCCS(=O)(=O)N1CCC(Nc2nc(N)c(C(=O)c3c(F)cccc3F)s2)CC1` [Example V51], for which the inhibition at 0.05 µM in test [1] is 79%. Also, the inhibition at 0.175 µM in test [2] worked out at 0%.

For `Nc1nc(NC2CCN(S(=O)(=O)CCCNCCCn3ccnc3)CC2)sc1C(=O)c1c(F)cccc1F` [Example V3], in test [1], the inhibition at 0.05 µM stood at 84%. Further, the inhibition at 0.175 µM in test [2] was found to be 17%.

Regarding `COCCNCCCS(=O)(=O)N1CCC(Nc2nc(N)c(C(=O)c3c(F)cccc3F)s2)CC1` [Example V67], the inhibition at 0.05 µM in test [1] is 87%. Further, the inhibition at 0.175 µM in test [2] was found to be 21%.

On to `Nc1nc(NC2CCN(S(=O)(=O)CCCNCc3ccc(F)cc3)CC2)sc1C(=O)c1c(F)cccc1F` [Example V52], for which the inhibition at 0.05 µM in test [1] turned out to be 92%. In test [2], the inhibition at 0.175 µM came out at 65%.

Consider `Nc1nc(NC2CCN(S(=O)(=O)CCCNCCN3CCOCC3)CC2)sc1C(=O)c1c(F)cccc1F` [Example V10], for which the inhibition at 0.05 µM in test [1] turned out to be 69%. Further, the inhibition at 0.175 µM in test [2] amounted to 3%.

`CC(C)N1CCN(CCCS(=O)(=O)N2CCC(Nc3nc(N)c(C(=O)c4c(F)cccc4F)s3)CC2)CC1` [Example V115]: the inhibition at 0.05 µM in test [1] amounted to 75%. The inhibition at 0.175 µM in test [2] is 9%.

In the case of `CC(=O)NCCNCCCS(=O)(=O)N1CCC(Nc2nc(N)c(C(=O)c3c(F)cccc3F)s2)CC1` [Example V19], the inhibition at 0.05 µM in test [1] stood at 59%. Also, the inhibition at 0.175 µM in test [2] came to 13%.

Turning to `Nc1nc(NC2CCN(S(=O)(=O)CCCNCCC3=CCCCC3)CC2)sc1C(=O)c1c(F)cccc1F` [Example V49], the inhibition at 0.05 µM in test [1] was 91%. Also, in test [2], the inhibition at 0.175 µM is 38%.

Regarding `CCc1ccnc(NCCCS(=O)(=O)N2CCC(Nc3nc(N)c(C(=O)c4c(F)cccc4F)s3)CC2)c1` [Example V111], in test [1], the inhibition at 0.05 µM stood at 86%. Also, the inhibition at 0.175 µM in test [2] is 5%.

As to `Nc1nc(NC2CCN(S(=O)(=O)CCCNCc3ccccc3F)CC2)sc1C(=O)c1c(F)cccc1F` [Example V26], the inhibition at 0.05 µM in test [1] amounted to 92%. In test [2], the inhibition at 0.175 µM stood at 76%.
